Results reported in patent publication US10842793B2, “Inhibitors of the unconventional secretion of fibroblast growth factor 2 (FGF2) by tumor cells and uses thereof” (Universität Heidelberg, priority 2016, dated 2020).

What was measured:
[1] = target: T1, Tec kinase mediated tyrosine phosphorylation of STAP1 (Homo sapiens, UniProt P42680); experiment: In vitro Tec kinase mediated tyrosine phosphorylation of STAP1; type: biochemical; details: 50 μM compound; FIGS. 7C and F
T1 construct: made in house; host or cells: Tec: SF9 insect cells (baculovirus); STAP1 purchased (Hölzel Diagnostika, Cat. # GWB-P0486E-100)
Procedure: FGF2 and STAP1 tyrosine phosphorylation as well as Tec kinase auto-phosphorylation were analyzed as described in the legend to FIG. 6 and in Experimental Procedures. In vitro phosphorylation experiments were conducted in the absence (1% DMSO mock control) and presence of the small molecule inhibitors (#6, #14, #21; 50 μM in 1% DMSO) and control compounds (#18, #19; 50 μM in 1% DMSO) introduced in FIGS. 4 and 5. A Western analysis was conducted using anti-phosphotyrosine antibodies (anti-pY-FGF2 for FGF2 and Tec as well as anti-pY-4G10 for STAP1). M=PageRuler Prestained Protein Ladder: 140, 115, 80, 65, 50, 40, 30, 25, 15, 10 kDa. Fluorescent secondary antibodies were used to detect and quantify antigens using the LI-COR Odyssey imaging platform. In panels D, E and F, following normalization based upon background signals detected in the absence of Tec kinase or ATP, the average of the signals detected under mock conditions was defined as 100% activity. Standard deviations are shown. A one-tailed and unpaired T-test was conducted to assess statistical significance (* p<0.05, ** p<0.01, *** p<0.001, **** p<0.0001). “NS” indicates absence of significant differences.
(§1) A Tec kinase in vitro phosphorylation assay was established to test the inhibitory potential and selectivity of the small molecule inhibitors reported in this study (FIGS. 6 and 7). […] Phosphorylation levels of GST-NΔ173 Tec (auto-phosphorylation), FGF2 and STAP1 were quantified by a Western analysis using polyclonal anti-phosphotyrosine antibodies raised against a FGF2-derived synthetic peptide containing a phosphorylated tyrosine residue (ANRpYLAMKED; SEQ ID NO: 1). […] Phosphorylation levels of STAP1 were monitored using a monoclonal anti-phosphotyrosine antibody (clone 4G10®, #05-321, Merck Millipore). Appropriate fluorescent secondary antibodies (goat anti-rabbit IgG conjugated with Alexa Fluor® 680, # A-21076, Life Technologies; goat anti-mouse IgG conjugated with Alexa Fluor® 680, # A-21057, Life Technologies) were used to quantify all antigens employing the LI-COR Odyssey infrared imaging platform. […]

[2] = target: T2, Tec kinase mediated tyrosine phosphorylation of FGF2 (GST-NΔ173 Tec) (Homo sapiens, UniProt P42680); experiment: In vitro Tec kinase mediated tyrosine phosphorylation of FGF2; type: biochemical; details: 50 μM compound in 1% DMSO; FIG. 6C
T2 construct: made in house; host or cells: Tec: SF9 insect cells (baculovirus); FGF2: E. coli
Procedure: FGF2 tyrosine phosphorylation and Tec kinase auto-phosphorylation were reconstituted with purified components based on a Western analysis using anti-phosphotyrosine antibodies directed against an FGF2-derived phosphopeptide. In vitro phosphorylation experiments were conducted in the absence (1% DMSO mock control) and presence of the small molecule inhibitors (#6, #14, #21; 50 μM in 1% DMSO) and control compounds (#18, #19; 50 μM in 1% DMSO) introduced in FIGS. 4 and 5. Fluorescent secondary antibodies were used to detect antigens employing the LI-COR Odyssey imaging platform. M=PageRuler Prestained Protein Ladder. For details, see Experimental Procedures.
(C) Quantification and statistical analysis of 5 independent experiments using the LI-COR Odyssey imaging platform. Following background normalization, the average of FGF2 tyrosine phosphorylation under mock conditions was defined as 100% activity. Standard deviations are shown. […]
FGF2 and STAP1 tyrosine phosphorylation as well as Tec kinase auto-phosphorylation were analyzed as described in the legend to FIG. 6 and in Experimental Procedures. […] Fluorescent secondary antibodies were used to detect and quantify antigens using the LI-COR Odyssey imaging platform. In panels D, E and F, following normalization based upon background signals detected in the absence of Tec kinase or ATP, the average of the signals detected under mock conditions was defined as 100% activity. […]
as §1, with “Millipore).” for “Millipore). Appropriate fluorescent secondary antibodies (goat anti-rabbit IgG conjugated with Alexa Fluor® 680, # A-21076, Life Technologies; goat anti-mouse IgG conjugated with Alexa Fluor® 680, # A-21057, Life Technologies) were used to quantify all antigens employing the LI-COR Odyssey infrared imaging platform.”

T2 sequence (P42680 174-631, stated change not applied): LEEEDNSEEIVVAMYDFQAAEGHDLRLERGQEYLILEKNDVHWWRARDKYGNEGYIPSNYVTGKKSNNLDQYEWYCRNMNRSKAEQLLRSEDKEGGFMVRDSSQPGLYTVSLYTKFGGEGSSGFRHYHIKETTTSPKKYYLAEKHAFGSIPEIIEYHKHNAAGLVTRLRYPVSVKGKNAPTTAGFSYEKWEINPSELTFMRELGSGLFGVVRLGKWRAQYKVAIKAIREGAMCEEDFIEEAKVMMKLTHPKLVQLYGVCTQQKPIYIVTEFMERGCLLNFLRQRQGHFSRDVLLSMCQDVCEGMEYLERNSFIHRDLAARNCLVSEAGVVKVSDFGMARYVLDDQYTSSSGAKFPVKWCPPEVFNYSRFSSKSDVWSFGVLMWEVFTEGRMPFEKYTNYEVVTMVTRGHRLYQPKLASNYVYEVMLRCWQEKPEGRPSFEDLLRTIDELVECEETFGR
T1 sequence (P42680 174-631): as the sequence (P42680 174-631, stated change not applied) above

inhibition at 50 µM [2] | inhibition of FGF2 tyrosine phosphorylation [2] | Compound | effect on tyrosine phosphorylation of STAP1 [1]
~75% | – | COC(=O)c1c(C)[nH]c(C(=O)OCc2cc(=O)n3c(C)cccc3n2)c1C [compound #6] | neither auto-phosphorylation of NΔ173 Tec nor tyrosine phosphorylation of STAP1 is affected
– | almost quantitative inhibition | CC(=O)c1c(C)[nH]c(C(=O)OCc2cc(=O)n3cc(Br)ccc3n2)c1C [compound #14] | neither auto-phosphorylation of NΔ173 Tec nor tyrosine phosphorylation of STAP1 is affected
– | almost quantitative inhibition | CC(=O)c1c(C)[nH]c(C(=O)CSc2nc3cc(Cl)cnc3[nH]2)c1C [compound #21] | neither auto-phosphorylation of NΔ173 Tec nor tyrosine phosphorylation of STAP1 is affected
